Measured values published in patent US9938562B2, “Naphthalene derived chromogenic enzyme substrates” (Glycosynth Limited, priority 2013, dated 2018).
Counter-ions that a name gives are not always drawn. Like-named read-outs stand apart in the source and are kept apart here.

Legend:
[1] = tested on: Morganella morganii 462403 (wild); assay: Agar plate multi-point inoculation, colour; assay type: cell-based; conditions: Columbia agar, FAC 500 mg/L, substrate 300 mg/L, 37° C. 18 h in air
[2] = tested on: Staphylococcus epidermidis NCTC 11047; assay: Agar plate multi-point inoculation, colour; assay type: cell-based
[3] = tested on: Enterococcus faecalis NCTC 775; assay: Agar plate multi-point inoculation, colour; assay type: cell-based
[4] = tested on: Candida glabrata NCPF 3943; assay: Agar plate multi-point inoculation, colour; assay type: cell-based
[5] = tested on: Staphylococcus aureus (MRSA) NCTC 11939; assay: Agar plate multi-point inoculation, colour; assay type: cell-based; conditions: for Colour: Columbia agar, FAC 500 mg/L, substrate 300 mg/L, 37° C. 18 h in air
[6] = tested on: Escherichia coli NCTC 10418; assay: Agar plate multi-point inoculation, colour; assay type: cell-based
[7] = tested on: Serratia marcescens NCTC 10211; assay: Agar plate multi-point inoculation, colour; assay type: cell-based
[8] = tested on: Staphylococcus aureus NCTC 6571; assay: Agar plate multi-point inoculation, colour; assay type: cell-based
[9] = tested on: Salmonella typhimurium NCTC 74; assay: Agar plate multi-point inoculation, colour; assay type: cell-based
[10] = tested on: Candida albicans ATCC 90028; assay type: cell-based; conditions: Columbia agar, FAC 500 mg/L, substrate 300 mg/L, 37° C. 18 h in air
[11] = tested on: Bacillus subtilis NCTC 9372; assay: Agar plate multi-point inoculation, colour; assay type: cell-based
[12] = tested on: Burkholderia cepacia 1222; assay: Agar plate multi-point inoculation, colour; assay type: cell-based; conditions: Columbia agar, FAC 500 mg/L, substrate 300 mg/L, 37° C. 18 h in air
[13] = tested on: Steptococcus pyogenes NCTC 8306; assay: Agar plate multi-point inoculation, colour; assay type: cell-based
[14] = tested on: Citrobacter freundii NCTC 9750 or 46262; assay: Agar plate multi-point inoculation, colour; assay type: cell-based; conditions: Columbia agar, FAC 500 mg/L, substrate 300 mg/L, 37° C. 18 h in air
[15] = tested on: Pseudomonas aeruginosa NCTC 10662; assay: Agar plate multi-point inoculation, colour; assay type: cell-based
[16] = tested on: Providencia rettgeri NCTC 7475; assay: Agar plate multi-point inoculation, colour; assay type: cell-based
[17] = tested on: Listeria monocytogenes NCTC 11994; assay: Agar plate multi-point inoculation, colour; assay type: cell-based
[18] = tested on: Enterobacter cloacae NCTC 11936; assay: Agar plate multi-point inoculation, colour; assay type: cell-based
[19] = tested on: Yersinia enterocolitica NCTC 11176; assay: Agar plate multi-point inoculation, colour; assay type: cell-based; conditions: Columbia agar, FAC 500 mg/L, substrate 300 mg/L, 37° C. 18 h in air
[20] = tested on: Enterococcus faecium NCTC 7171; assay: Agar plate multi-point inoculation, colour; assay type: cell-based
range of microorganisms = assay: Agar plate evaluation with a range of microorganisms (hue, diffusion, background); assay type: cell-based; conditions: agar plates with FAC
[21] = Columbia agar, FAC 500 mg/L, substrate 300 mg/L, 37° C. 18 h in air

| Compound | melting point | Colour [1] | Colour [2, 21] | Colour [3, 21] | Colour [4, 21] | Colour [5] | Colour [6, 21] | Colour [7, 21] | Colour [8, 21] | Colour [9, 21] | Colour [10] | Colour [11, 21] | Colour [12] | Colour [13, 21] | Colour [14] | Colour [15, 21] | Colour [16, 21] | Colour [17, 21] | Colour [18, 21] | Colour [19] | further results |
| --- | --- | --- | --- | --- | --- | --- | --- | --- | --- | --- | --- | --- | --- | --- | --- | --- | --- | --- | --- | --- | --- |
| O=C(O)C1OC(Oc2cc3ccccc3cc2O)C(O)C(O)C1O (as salt: salt) [Compound 12a, DHN-β-D-glucuronide CHA Salt] | 223 to 224 °C |  |  |  |  |  |  |  |  |  |  |  |  |  |  |  |  |  |  |  |  |
| O=C(O)C1OC(Oc2cc3cc(Br)c(Br)cc3cc2O)C(O)C(O)C1O (as salt: salt) [Compound 29, 6,7-Dibromo-DHN-β-D-glucuronide CHA Salt] | 221 to 224 °C |  |  |  |  |  |  |  |  |  |  |  |  |  |  |  |  |  |  |  |  |
| OC[C@H]1O[C@@H](Oc2cc3ccccc3cc2O)C(O)C1O (stereo partly drawn) [Compound 2, DHN-β-D-ribofuranoside] | 181 to 182 °C | ++ | − | − | − | + | ++ | ++ | + | ++ | − | − | − | − | ++ | − | ++ | − | ++ | − | hydrolysis of substrate ([2]; agar plates with FAC): unaffected; hydrolysis of substrate ([5]; agar plates with FAC): able to hydrolyse; hydrolysis of substrate ([8]; agar plates with FAC): able to hydrolyse; Colour [20, 21]: − |
| OCC1OC(Oc2cc3ccccc3cc2O)C(O)C(O)C1O [Compound 6, DHN-α-D-glucopyranoside] | 164 to 166 °C | − | + | ++ | − | +/− | + | ++ | +/− | − | − | ++ | − | ++ | − | − | − | ++ | ++ | Tr. | Colour [20, 21]: Tr. |
| OCC1OC(Oc2cc3ccccc3cc2O)C(O)C(O)C1O [Compound 10, DHN-α-D-galactopyranoside] |  | − | − | − | − | − | Tr. | − | − | − | − | − | − | − | − | − | − | − | Tr. | − | Colour [20, 21]: − |
| O=C([O-])C1OC(Oc2cc3ccccc3cc2O)C(O)C(O)C1O.[Na+] [Compound 12b, DHN-β-D-glucuronide Sodium Salt] | 53 to 55 °C | − | − | − | − | − | ++ | − | − | − | − | − | − | − | − | − | − | − | − | − | hydrolysis of substrate (judged by colour) ([6]; agar plates containing FAC): strong colour; Colour [20, 21]: − |
| CC(=O)NC1C(Oc2cc3ccccc3cc2O)OC(CO)C(O)C1O [Compound 15, DHN-N-acetyl-β-D-glucosaminide] | 204 to 205 °C | − | − | ++ | − | − | − | ++ | − | − | − | − | − | ++ | − | − | − | ++ | +/− | + | Colour [20, 21]: ++ |
| O=[N+]([O-])c1c(O)c(O[C@@H]2O[C@H](CO)C(O)C2O)cc2ccccc12 (stereo partly drawn) [Compound 19, 1-Nitro-DHN-β-D-ribofuranoside] | > 170 °C (dec.) |  |  |  |  |  |  |  |  |  |  |  |  |  |  |  |  |  |  |  | colour (hue) after hydrolysis (range of microorganisms): more distinctly red |
| OCC1OC(Oc2cc3cc(Br)c(Br)cc3cc2O)C(O)C(O)C1O [Compound 25, 6,7-Dibromo-DHN-β-D-galactopyranoside] | 256 to 257 °C | − | − | Tr. | − | − | ++ | + | − | − | − | − | +/− | − | + | − | − | +/− | − | − | Colour [20, 21]: +/− |
| OCC1OC(Oc2cc3cc(Br)c(Br)cc3cc2O)C(O)C(O)C1O [Compound 27, 6,7-Dibromo-DHN-β-D-glucopyranoside] |  | − | − | Tr. | − | Tr. | Tr. | ++ | Tr. | − | − | + | + | − | + | − | ++ | +/− | − | − | Colour [20, 21]: +/− |
| O=C(O)C1OC(Oc2cc3cc(Br)c(Br)cc3cc2O)C(O)C(O)C1O [Compound 29, 6,7-Dibromo-DHN-β-D-glucuronide CHA Salt] |  | − |  |  |  | − |  |  |  |  | − |  | − |  | − |  |  |  |  | − | Colour [2]: −; Colour [3]: −; Colour [4]: −; Colour [6]: ++; Colour [7]: −; Colour [8]: −; Colour [9]: −; Colour [11]: −; Colour [13]: −; Colour [15]: −; Colour [16]: −; Colour [17]: −; Colour [18]: −; Colour [20]: − |
